We go through five molecules from BindingDB's records for patent US20250163064 (Amgen, 2025).

The target of test [1] is kras g12d tr-fret (Homo sapiens, UniProt P01116, G12D). The test is described as follows: KRAS G12D TR-FRET Assay. How it is done: The His-tagged KRAS G12D protein (Amgen) was diluted to 20 nM in Assay Buffer (20 mM HEPES, pH 7.4, 10 mM MgCl2, 50 mM NaCl, 0.1% BSA, 0.01% Tween-20, 10 μM GDP) and 2 μL was added to the appropriate wells of the 384-well plate. The plate was incubated for 30 minutes at rt. Biotinylated KRPep-2d substrate (Amgen) was diluted to […] in Assay Buffer and 2 AL was added to all wells and incubated for 1 hour at room temperature. Detection Reagent (0.4 nM LANCE Eu-W1024 Anti-6×His (Perkin Elmer AD0401), 5 nM streptavidin-d2 (Cisbio 610SADLA)) was prepared in Assay Buffer, then 4 AL was added to the plate and incubated for 1 h at rt.
Chain of kras g12d tr-fret (P01116 whole entry G12D): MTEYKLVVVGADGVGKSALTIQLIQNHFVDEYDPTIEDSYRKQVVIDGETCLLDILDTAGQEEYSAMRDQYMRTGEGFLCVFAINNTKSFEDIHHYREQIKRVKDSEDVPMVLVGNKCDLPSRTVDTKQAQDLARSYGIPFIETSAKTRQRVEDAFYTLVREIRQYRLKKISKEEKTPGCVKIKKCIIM
Background: TR-FRET usually uses a lanthanide donor and a delayed reading to cut background.

Test [2] concerns the target GTPase KRas [G12D,C118A] (Homo sapiens, UniProt P01116, C118A/G12D). The test is described as follows: KRAS G12D Coupled Nucleotide Exchange Assay. Here is the method:
The assay plates were then read on a PerkinElmer En Vision Multilabel Reader, using AlphaScreen technology, and data were analyzed using a 4-parameter logistic model to calculate IC50 values.

Structures are written as SMILES.

Chain of GTPase KRas [G12D,C118A] (P01116 whole entry G12D/C118A, looked up): as the sequence (P01116 whole entry G12D) above, with C118A counted along it

The IC50 is the concentration that gives 50% inhibition. For `N#Cc1c(N)sc2c(F)ccc(-c3c(Cl)cc4c(N5CC6CC(O)C(C6)C5)nc(OC[C@@]56CCCN5C[C@H](F)C6)nc4c3F)c12` (mixture of isomers) [US20250163064, Example 7], the IC50 in test [1] was 4 nM; in test [2] it was 6 nM.

On to `N#Cc1c(N)sc2c(F)ccc(-c3c(Cl)cc4c(N5CCCC[C@@H](O)C5)nc(OC[C@@]56CCCN5C[C@H](F)C6)nc4c3F)c12` [US20250163064, Example 4], for which the IC50 was 4 nM in test [1] and 6 nM in test [2]. Turning to `N#Cc1c(N)sc2c(F)ccc(-c3c(Cl)cc4c(N5CCCC6(CNC(=O)O6)C5)nc(OC[C@@]56CCCN5C[C@H](F)C6)nc4c3F)c12` (some centres undefined) [US20250163064, Example 17], the results for the IC50 in test [1] and in test [2] were 3 nM and 6 nM, respectively. Regarding `N#Cc1c(N)sc2c(F)ccc(-c3c(Cl)cc4c(N5CCCC(C#N)CC5)nc(OC[C@@]56CCCN5C[C@H](F)C6)nc4c3F)c12` (some centres undefined) [US20250163064, Example 3], the IC50 in test [1] is 4 nM; in test [2] it was 7 nM. Consider `N#Cc1c(N)sc2c(F)ccc(-c3c(Cl)cc4c(N5CCOCC(=O)C5)nc(OC[C@@]56CCCN5C[C@H](F)C6)nc4c3F)c12` [US20250163064, Example 6], for which, in test [2], the IC50 was determined as 5 nM.
